Test results from PMC11943507 (Marine Drugs, 2025).
Where “and” joins values, the source holds several entries; their conditions need not be identical. Equal entries are not always repeated. Entries after “also recorded” stand apart in the source; their conditions may differ. Where two headings read alike, the source gives them in different places.

Experiments:
hNav1.1 [1] = target: T1, hNav1.1 (Homo sapiens, UniProt P35498); assay type: cell-based
hNav1.1 [2] = target: T1, hNav1.1; assay type: cell-based; remark: listed apart in the source
hNav1.1 [3] = target: T1, hNav1.1; test: cell-based; assay type: cell-based
hNav1.1 [4] = target: T1, hNav1.1; assay type: cell-based; remark: listed apart in the source
Nav1.7 = details: cited from earlier work
Nav1.6 = details: cited from earlier work
Nav1.1 = details: cited from earlier work
hNav1.1 [5] = target: T1, hNav1.1

Q: With C=C1[C@@H](O)[C@@H]2O[C@]3(CC[C@H](/C=C/[C@@H](C)[C@@H]4CC(C)=C[C@@]5(O[C@H](C[C@@](C)(O)C(=O)O)CC[C@H]5O)O4)O3)CC[C@H]2O[C@@H]1[C@@H](O)C[C@H](C)[C@H]1O[C@@]2(CC[C@H]1C)OCCC[C@H]2C [DTX1, dinophysistoxin 1] as the molecule, how does the “agonist activity in initial screening” value (hNav1.1 [1]) read?
A: Its value is “did not exhibit any potential agonist or inhibitor activity”.

Q: And the “fluorescence intensity stimulated by 30 μM veratridine, inhibition mode concentration-response” value (hNav1.1 [2])?
A: Its value is “not significantly inhibited”.

Q: What about the “fluorescence signal in agonist mode concentration-response” value (hNav1.1 [3]) of the same molecule?
A: Its value is “no significant increase”.

Q: And the “inhibitory effect in initial screening” value (hNav1.1 [4])?
A: The value was “no significant inhibition; also recorded: did not exhibit any potential agonist or inhibitor activity”.

Q: Which results are given for COc1ccc(C(=O)O[C@H]2CC[C@@]3(C)[C@@H]4CC[C@H]5[C@]6(O)C[C@H](O)[C@@]7(O)[C@@H](CN8C[C@@H](C)CC[C@H]8[C@@]7(C)O)[C@]6(O)C[C@@]53O[C@]24O)cc1OC [veratridine]?
A: EC50 (Nav1.7; read-out: EC50, tail and sustained currents): 9.53 µM; IC50 (Nav1.7; read-out: IC50, inhibitory effect on the peak current): 18.4 µM; peak amplitude of the sodium current (Nav1.6): enhanced; peak current (Nav1.6): suppressed; fluorescence signal relative to the maximum fluorescence signal (hNav1.1 [3]): approximately 80%; EC50 (hNav1.1 [3]; EC50): ~24 µM and 24 µM

Q: What does the source list for NC1=N[C@H](O)[C@H]2[C@H]3O[C@]4(O)O[C@@H]([C@@H](O)[C@@]2(N1)[C@@H]4O)[C@]3(O)CO [TTX, tetrodotoxin]?
A: IC50 (Nav1.1): […]; suppression of hNav1.1 current signal (hNav1.1 [5]): almost completely suppressed; IC50 (hNav1.1 [5]; read-out: IC50 determined by patch clamp): 0.00327 µM and ~0.00327 µM; IC50 (hNav1.1 [2]): 0.0184 µM; inhibition of the channel-opening effect of 30 μM veratridine (hNav1.1 [2]): almost completely inhibited
